Source: BindingDB's records for doi:10.1021/acsmedchemlett.9b00264 (Xiamen University, 2019)

Columns and labels:
[1] = Inhibition of JMJD6 in human HeLa cells assessed as decrease in cell proliferation measured after 72 hrs by CellTiter 96 AQueous one solution cell proliferation assay
[2] = Inhibition of JMJD6 in human […] cells assessed as decrease in cell proliferation measured after 72 hrs by CellTiter 96 AQueous one solution cell proliferation assay

- IC50 [1]: 2.44 µM
- IC50 [2]: 10.2 µM
SMILES: Cc1ccc2oc(=O)c(-c3nc4cnccc4[nH]3)cc2c1
